Measured values published in PubChem BioAssay (NCI).
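Following 48 hours of exposure in 96-well plates, responses at five concentrations were used to interpolate endpoints linearly. At the GI50, growth is halved. TGI marks complete inhibition of growth.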

Experiments:
Assay in all cases: NCI tumour cell line growth inhibition, 48 h
786-0 renal = tested on: 786-0 renal
EKVX NSCLC = tested on: EKVX NSCLC
HL-60(TB) leukemia = tested on: HL-60(TB) leukemia
KM12 colon = tested on: KM12 colon
MALME-3M melanoma = tested on: MALME-3M melanoma
RXF 393 renal = tested on: RXF 393 renal
SN12C renal = tested on: SN12C renal
TK-10 renal = tested on: TK-10 renal
UACC-62 melanoma = tested on: UACC-62 melanoma
PC-3 prostate = tested on: PC-3 prostate

SMILES | TGI (786-0 renal) [µM] | TGI (EKVX NSCLC) [µM] | TGI (HL-60(TB) leukemia) [µM] | TGI (KM12 colon) [µM] | TGI (MALME-3M melanoma) [µM] | TGI (RXF 393 renal) [µM] | TGI (SN12C renal) [µM] | TGI (TK-10 renal) [µM] | TGI (UACC-62 melanoma) [µM] | GI50 (786-0 renal) [µM] | GI50 (HL-60(TB) leukemia) [µM] | GI50 (KM12 colon) [µM] | GI50 (MALME-3M melanoma) [µM] | GI50 (SN12C renal) [µM] | GI50 (UACC-62 melanoma) [µM] | GI50 (PC-3 prostate) [µM] | TGI (PC-3 prostate) [µM] | GI50 (RXF 393 renal) [µM]
C/C(=N\NC(=S)Nc1ccc(C(=O)O)cc1)c1ccccn1 | 43.3 | > 100 | 52.5 | 68.9 | 35.1 | 74.4 | 35.8 | > 100 | 21.9 |  |  |  |  |  |  |  |  | 
CC(=O)[CH-]C(=O)c1ccccc1.CC(=O)[CH-]C(=O)c1ccccc1.CCN(CC)CC[O-].CCN(CC)CC[O-].Cl.[Ti+4] | > 100 |  | 61.2 | 59.6 | 60.8 |  | > 100 |  | 91.6 | 45.5 | 19.6 | 20 | 22.8 | 39.5 | 36 |  |  | 
CC1=COC(=O)c2ccccc2N1 | > 100 | > 100 | > 100 | > 100 | > 100 | > 100 | > 100 | > 100 | > 100 |  |  |  |  |  |  |  |  | 
CCOP(=O)(OCC)C1C(=O)O[C@H]2CCCC[C@@H]12 (stereo not given in full) | > 100 | > 100 |  | > 100 | > 100 | > 100 | > 100 | > 100 | > 100 |  |  |  |  |  |  |  |  | 
NNC(=O)/C(=C/c1cccc([N+](=O)[O-])c1)NC(=O)c1ccccc1 | > 100 | > 100 | > 100 | > 100 | > 100 | > 100 | > 100 | > 100 |  |  |  |  |  |  |  |  |  | 
NC(N)=NS(=O)(=O)c1ccc(NC(=O)c2cccc3c(Nc4ccc(S(=O)(=O)N=C(N)N)cc4)c4ccc(Cl)cc4nc23)cc1 | > 100 | > 100 |  | > 100 | > 100 | > 100 | > 100 | > 100 | > 100 |  |  |  |  |  |  |  |  | 
C/C(=N\N(C)C)c1sc(-n2nc(-c3ccccc3)cc2-c2ccccc2)nc1C | > 100 | > 100 | > 100 | > 100 | > 100 | > 100 | > 100 | > 100 | > 100 |  |  |  |  |  |  |  |  | 
CCCCN(CCCC)C(=O)C(=O)CC(=O)c1ccc(Br)cc1 | > 100 | > 100 | > 100 | > 100 | > 100 |  | > 100 | > 100 | > 100 |  |  |  |  |  |  |  |  | 
COc1c(OC(C)=O)ccc(/C=C2\N=C(C)OC2=O)c1[N+](=O)[O-] | > 100 |  | > 100 | > 100 | > 100 | > 100 | > 100 | > 100 | > 100 |  |  |  |  |  |  |  |  | 
CC1(C)N=C(N)N=C(N)N1c1cccc(/C=C/C=C/c2cccc([N+](=O)[O-])c2)c1 | 52.9 |  | 13 | 15.5 |  | > 100 | 20.1 |  | 17.9 | 21.3 | 2.55 | 2.59 |  | 5.3 | 3.74 | 0.448 | 11.8 | 17.4
Cn1nc(-c2ccccc2NC(=O)C(F)(F)F)c(=O)n(C)c1=S | > 100 | 86.5 |  | 80.9 | > 100 | > 100 | > 100 | > 100 |  |  |  |  |  |  |  |  |  | 
